Test results as given in patent US8309558B2, “Compounds for the treatment of hepatitis C” (Bristol-Myers Squibb Company, priority 2008, dated 2012).

Tests used:
[1] = target: T1, HCV NS5B RdRp genotype 1b (Hepatitis C virus genotype 1b, UniProt Q9WMX2); assay: Standard HCV NS5B RdRp enzyme assay; assay type: biochemical; conditions: Table 1a; HCV NS5B RdRp genotype 1b; read-out: IC50
T1 construct: The protein was expressed with an 18 amino acid C-terminal truncation to enhance the solubility; made in house; host or cells: E. coli BL21(DE3), pET21a vector
Experimental: HCV NS5B RdRp cloning, expression, and purification. The cDNA encoding the NS5B protein of HCV, genotype 1b, was cloned into the pET21a expression vector. The protein was expressed with an 18 amino acid C-terminal truncation to enhance the solubility. The E. coli competent cell line BL21(DE3) was used for expression of the protein. Cultures were grown at 37° C. for ˜4 hours until the cultures reached an optical density of 2.0 at 600 nm. The cultures were cooled to 20° C. and induced with 1 mM IPTG. Fresh ampicillin was added to a final concentration of 50 μg/ml and the cells were grown overnight at 20° C.
Cell pellets (3 L) were lysed for purification to yield 15-24 mgs of purified NS5B. The lysis buffer consisted of 20 mM Tris-HCl, pH 7.4, 500 mM NaCl, 0.5% triton X-100, 1 mM DTT, 1 mM EDTA, 20% glycerol, 0.5 mg/ml lysozyme, 10 mM MgCl2, 15 ug/ml deoxyribonuclease I, and Complete TM protease inhibitor tablets (Roche). After addition of the lysis buffer, frozen cell pellets were resuspended using a tissue homogenizer. To reduce the viscosity of the sample, aliquots of the lysate were sonicated on ice using a microtip attached to a Branson sonicator. The sonicated lysate was centrifuged at 100,000×g for 1 hr at 4° C. and filtered through a 0.2 μm filter unit (Corning).
The protein was purified using three sequential chromatography steps: Heparin sepharose CL-6B, polyU sepharose 4B, and Hitrap SP sepharose (Pharmacia). The chromatography buffers were identical to the lysis buffer but contained no lysozyme, deoxyribonuclease I, MgC12 or protease inhibitor and the NaCl concentration of the buffer was adjusted according to the requirements for charging the protein onto the column. Each column was eluted with a NaCl gradient which varied in length from 5-50 column volumes depending on the column type. After the final chromatography step, the resulting purity of the enzyme is >90% based on SDS-PAGE analysis. The enzyme was aliquoted and stored at −80° C.
Standard HCV NS5B RdRp enzyme assay. HCV RdRp genotype 1b assays were run in a final volume of 60 μl in 96 well plates (Costar 3912). The assay buffer composed of 20 mM Hepes, pH 7.5, 2.5 mM KCl, 2.5 mM MgCl2, 1 mM DTT, 1.6 U RNAse inhibitor (Promega N2515), 0.1 mg/ml BSA (Promega R3961), and 2% glycerol. All compounds were serially diluted (3-fold) in DMSO and diluted further in water such that the final concentration of DMSO in the assay was 2%. HCV RdRp genotype 1b enzyme was used at a final concentration of 28 nM. A polyA template was used at 6 nM, and a biotinylated oligo-dT12 primer was used at 180 nM final concentration. Template was obtained commercially (Amersham 27-4110). Biotinylated primer was prepared by Sigma Genosys. 3H-UTP was used at 0.6 μCi (0.29 μM total UTP). Reactions were initiated by the addition of enzyme, incubated at 30° C. for 60 min, and stopped by adding 25 μl of 50 mM EDTA containing SPA beads (4 μg/μl, Amersham RPNQ 0007). Plates were read on a Packard Top Count NXT after >1 hr incubation at room temperature.
IC50 values for compounds were determined using seven different [I]. IC50 values were calculated from the inhibition using the formula y=A+((B−A)/(1+((C/x)^D))).

[2] = system: HCV replicon cells; assay: HCV replicon FRET / luciferase assay (96-well plates); assay type: cell-based; conditions: Hepatitis C virus, Table 1a; HCV replicon; read-out: EC50
Summary of the method: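 Percent activity is background-subtracted signal relative to untreated cell wells, with background taken from maximal protease-inhibitor wells. Cytotoxicity is Alamar blue fluorescence relative to controls. Replicon inhibition was read by NS3 FRET peptide cleavage (340/490 nm) or luciferase.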

T1 sequence (Q9WMX2 2420-2992): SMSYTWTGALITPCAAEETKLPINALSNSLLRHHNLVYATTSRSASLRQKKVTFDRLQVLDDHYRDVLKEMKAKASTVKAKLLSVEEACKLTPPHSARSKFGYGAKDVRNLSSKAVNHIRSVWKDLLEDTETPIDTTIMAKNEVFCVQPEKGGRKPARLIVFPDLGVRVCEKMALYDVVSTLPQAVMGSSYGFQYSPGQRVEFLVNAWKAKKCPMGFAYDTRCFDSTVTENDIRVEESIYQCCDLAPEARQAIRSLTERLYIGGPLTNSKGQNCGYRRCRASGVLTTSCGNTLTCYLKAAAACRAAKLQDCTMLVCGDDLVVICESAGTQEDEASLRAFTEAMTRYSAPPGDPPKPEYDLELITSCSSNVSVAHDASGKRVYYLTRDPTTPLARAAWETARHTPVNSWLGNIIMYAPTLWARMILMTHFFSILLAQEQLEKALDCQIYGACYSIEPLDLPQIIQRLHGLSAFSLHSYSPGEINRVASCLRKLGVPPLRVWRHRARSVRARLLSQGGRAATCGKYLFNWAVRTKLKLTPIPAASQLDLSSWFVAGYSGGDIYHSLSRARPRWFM

SMILES	IC50 [1] [nM]	EC50 [2] [nM]
CNC(=O)c1c(-c2ccc(F)cc2)oc2ccc(-c3cccc(C(=O)NCc4cccc(F)c4)c3)cc12	< 250	< 250
CNC(=O)c1c(-c2ccc(F)cc2)oc2ccc(-c3cccc(C(=O)NCc4ccccc4)c3)cc12	< 250	< 250
CNC(=O)c1c(-c2ccc(F)cc2)oc2ccc(-c3cccc(C(=O)NCc4ccc(F)cc4)c3)cc12	< 250	< 250
CNC(=O)c1c(-c2ccc(F)cc2)oc2ccc(-c3cccc(C(=O)NC4(CO)CCCC4)c3)cc12	< 250	< 250
CNC(=O)c1c(-c2ccc(F)cc2)oc2ccc(-c3cccc(C(=O)NCc4cccc(C)c4)c3)cc12	< 250	< 250
CNC(=O)c1c(-c2ccc(F)cc2)oc2ccc(-c3cccc(C(=O)NC(CCO)c4ccccc4)c3)cc12 (centres unmarked)	< 250	250 to 1000
CNC(=O)c1c(-c2ccc(F)cc2)oc2ccc(-c3cccc(C(=O)N[C@@H]4CCc5ccc(O)cc54)c3)cc12	> 1390	250 to 1000
CNC(=O)c1c(-c2ccc(F)cc2)oc2ccc(-c3cccc(C(=O)Nc4ccnc(C)c4)c3)cc12	1000 to 10000	250 to 1000
CNC(=O)c1c(-c2ccc(F)cc2)oc2ccc(-c3cccc(C(=O)NC(C)c4cccnc4)c3)cc12 (centres unmarked)	< 250	250 to 1000
CNC(=O)c1c(-c2ccc(F)cc2)oc2ccc(-c3cccc(C(=O)N4CCC[C@H]4C(=O)N(C)C)c3)cc12	250 to 1000	250 to 1000
CNC(=O)c1c(-c2ccc(F)cc2)oc2ccc(-c3cccc(C(=O)N4CCCC4c4ccccn4)c3)cc12 (centres unmarked)	250 to 1000	250 to 1000
CNC(=O)c1c(-c2ccc(F)cc2)oc2ccc(-c3cccc(C(=O)NC(C)CCc4ccccc4)c3)cc12 (centres unmarked)	250 to 1000	250 to 1000
CNC(=O)c1c(-c2ccc(F)cc2)oc2ccc(-c3cccc(C(=O)NC(C)(C)c4cccc5ccccc45)c3)cc12	250 to 1000	250 to 1000
CNC(=O)c1c(-c2ccc(F)cc2)oc2ccc(-c3cccc(C(=O)Nc4nccs4)c3)cc12	< 250	250 to 1000
CNC(=O)c1c(-c2ccc(F)cc2)oc2ccc(-c3ccccn3)cc12	1000 to 10000	250 to 1000
CNC(=O)c1c(-c2ccc(F)cc2)oc2ccc(-c3cccc(C#N)c3)cc12	> 10000	250 to 1000
CNC(=O)c1c(-c2ccc(F)cc2)oc2ccc(-c3cccc4[nH]ccc34)cc12	> 10000	250 to 1000
CNC(=O)c1c(-c2ccc(F)cc2)oc2ccc(-c3cccc(C(=O)N(C)Cc4ccccc4)c3)cc12	250 to 1000	250 to 1000
CNC(=O)c1c(-c2ccc(F)cc2)oc2ccc(-c3cccc(C(=O)N4CCCC4c4ccccc4)c3)cc12 (centres unmarked)	250 to 1000	250 to 1000
CNC(=O)c1c(-c2ccc(F)cc2)oc2ccc(-c3cccc(C(=O)N4CCC(c5ccc(F)cc5)C4)c3)cc12 (centres unmarked)	250 to 1000	250 to 1000
CCNC(=O)C(C)(C)NC(=O)c1cccc(-c2ccc3oc(-c4ccc(F)cc4)c(C(=O)NC)c3c2)c1	250 to 1000	250 to 1000
CNC(=O)c1c(-c2ccc(F)cc2)oc2ccc(-c3cccc(C(=O)NC(C)(C)C(=O)NCC#N)c3)cc12	< 250	250 to 1000
C=CCNC(=O)C(C)(C)NC(=O)c1cccc(-c2ccc3oc(-c4ccc(F)cc4)c(C(=O)NC)c3c2)c1	250 to 1000	250 to 1000
CNC(=O)c1c(-c2ccc(F)cc2)oc2ccc(-c3cc(C(=O)NCC(C)C)ccc3OC(C)C)cc12	250 to 1000	250 to 1000
CNC(=O)c1c(-c2ccc(F)cc2)oc2cc(NC(=O)COC)c(-c3cccc(C(=O)NC4(c5ccccc5)CC4)c3)cc12	250 to 1000	250 to 1000
CNC(=O)c1c(-c2ccc(F)cc2)oc2ccc(-c3cc(C(=O)NCC(C)C)ccc3OC3CCC3)cc12	> 1390	250 to 1000

SMILES	IC50 [1] [nM]	EC50 [2] [nM]
CNC(=O)c1c(-c2ccc(F)cc2)oc2cc([N+](=O)[O-])c(-c3cc(C(=O)NCC(C)C)ccc3OC)cc12	250 to 1000	250 to 1000
CNC(=O)c1c(-c2ccc(F)cc2)oc2ccc(Oc3ccc(/C=C(\NC(=O)c4ccccc4)C(=O)OC)cc3)cc12	1000 to 10000	1000 to 10000
CNC(=O)c1c(-c2ccc(F)cc2)oc2ccc(-c3cnc(OC)nc3)cc12	1000 to 10000	1000 to 10000
CNC(=O)c1c(-c2ccc(F)cc2)oc2ccc(-c3ccc(C(=O)O)cc3)cc12	250 to 1000	1000 to 10000
CNC(=O)c1c(-c2ccc(F)cc2)oc2ccc(-c3cccc(C(=O)NCCN(C)C)c3)cc12	1000 to 10000	1000 to 10000
CNC(=O)c1c(-c2ccc(F)cc2)oc2ccc(-c3ccc(/C=C/C(=O)O)cc3)cc12	1000 to 10000	1000 to 10000
CNC(=O)c1c(-c2ccc(F)cc2)oc2ccc(-c3cccc(NC(C)=O)c3)cc12	1000 to 10000	1000 to 10000
CNC(=O)c1c(-c2ccc(F)cc2)oc2ccc(OCCOc3ccc(C(C)(C)C)cc3)cc12	> 10000	1000 to 10000
CNC(=O)c1c(-c2ccc(F)cc2)oc2ccc(OCCCNC(=O)OC(C)(C)C)cc12	1000 to 10000	1000 to 10000
CNC(=O)c1c(-c2ccc(F)cc2)oc2ccc(-c3ccc(F)cc3OCc3ccccc3)cc12	> 10000	1000 to 10000
CNC(=O)c1c(-c2ccc(F)cc2)oc2ccc(-c3ccc(OC4CCCCO4)cc3)cc12 (centres unmarked)	> 10000	1000 to 10000
CNC(=O)c1c(-c2ccc(F)cc2)oc2ccc(-c3cnc(OC)c(F)c3)cc12	> 10000	1000 to 10000
CNC(=O)c1c(-c2ccc(F)cc2)oc2ccc(-c3ccc(S(=O)(=O)NC)cc3)cc12	> 10000	1000 to 10000
CNC(=O)c1c(-c2ccc(F)cc2)oc2ccc(-c3cc(Cl)cnc3F)cc12	> 10000	1000 to 10000
CNC(=O)c1c(-c2ccc(F)cc2)oc2ccc(-c3ccc(C(=O)N4CCCC4)cc3)cc12	1000 to 10000	1000 to 10000
CNC(=O)c1c(-c2ccc(F)cc2)oc2ccc(-c3cc(CO)ccc3Cl)cc12	> 10000	1000 to 10000
CC(C)Oc1cc2c(-c3ncn[nH]3)c(-c3ccc(F)cc3)oc2cc1N(C)S(C)(=O)=O	250 to 1000	1000 to 10000
CNC(=O)c1c(-c2ccc(F)cc2)oc2ccc(-c3cccc(C(=O)OC(C)(C)C)c3)cc12	1000 to 10000	1000 to 10000
CCN(CC)C(=O)c1cccc(-c2ccc3oc(-c4ccc(F)cc4)c(C(=O)NC)c3c2)c1	1000 to 10000	1000 to 10000
CNC(=O)c1c(-c2ccc(F)cc2)oc2ccc(-c3cccc(C(=O)N(C)C)c3)cc12	1000 to 10000	1000 to 10000
CNC(=O)c1c(-c2ccc(F)cc2)oc2ccc(-c3cccc(/C=C/C(=O)O)c3)cc12	250 to 1000	1000 to 10000
CNC(=O)c1c(-c2ccc(F)cc2)oc2ccc(-c3cccc(C(=O)N4CCC(C)CC4)c3)cc12	1000 to 10000	1000 to 10000
CNC(=O)c1c(-c2ccc(F)cc2)oc2ccc(-c3cccc(C(=O)N4CCCCC4)c3)cc12	250 to 1000	1000 to 10000
CNC(=O)c1c(-c2ccc(F)cc2)oc2ccc(-c3cccc(C(=O)NCc4ccccc4O)c3)cc12	250 to 1000	1000 to 10000
CNC(=O)c1c(-c2ccc(F)cc2)oc2ccc(-c3cccc(C(=O)N4CCCC(O)C4)c3)cc12 (centres unmarked)	1000 to 10000	1000 to 10000
CNC(=O)c1c(-c2ccc(F)cc2)oc2ccc(-c3cccc(C(=O)NCc4ccccc4N)c3)cc12	1000 to 10000	1000 to 10000
